The values below come from patent publication US4079130A, “Antidepressant phenylazoimidazoles” (The Dow Chemical Company, priority 1977, dated 1978).

Data set [1] relates to mice. Description: Protection from reserpine-induced depression (ptosis) in mice (antidepressant activity). The class given is in vivo. The conditions noted are these: for ED50: Mus musculus; for antidepressant activity (in words): under the conditions of the demonstration. As to the method:
Separate groups of mice and the same origin and past history (5 mice per group) were administered 2-((2-fluorophenyl)azo)-1H-imidazole (Example 3) in an aqueous carrier. Different groups were administered the compound by intraperitoneal injection at various dosage rates. Thirty minutes after the administration of the test compound, the mice were administered reserpine at a dosage rate of 2.5 milligrams per kilogram by intraperitoneal injection. Separate groups of similar mice were similarly administered 2.5 milligrams of reserpine per kilogram 30 minutes after administration of various dosages of the known antidepressant. The mice were then observed for 45 minutes for symptoms of reserpine-induced depression.
Protection from reserpine-induced depression is indicated by the absence of the characteristic ptosis.
The results were employed to calculate the dose effective to protect 50 percent of the mice (ED50) by classical, statistical procedures.
The procedure of Example 15 was repeated using oral administration of 2-((2-fluorophenyl)azo)-1H-imidazole (Example 3) instead of intraperitoneal injection.
Using the general procedure outlined above, the ED50 's were calculated for some of the other imidazoles herein disclosed.

A short description of data set [2]: Acute toxicity, 50 percent lethal dose (LD50). To be noted: mouse, in vivo.
Data set [3] concerns mice. Description: Blocking of isolation-induced aggression in mice (antianxiety activity). The class given is in vivo. The conditions noted are these: for ED50: Mus musculus, ip, intraperitoneal, 30 min before pairing, doses 10.0, 21.5, 46.4 mg/kg. As to the method: Antianxiety agents tend to block isolation-induced aggression in mice. Aggression was established in untrained mice by isolating them in individual cages for a period of four weeks. At the end of that period, the mice were paired for three minutes on three test days within one week to establish the absence or presence of aggression. During pairing, one mouse was always in the home cage, and the other was the intruder. […] On test days, each dose of test drug was administered by intraperitoneal injection to five pairs of mice; five additional pairs received only the vehicle and served as controls. Each drug was tested at three doses 10.0 mg, 21.5 mg, and 46.4 mg per kilogram of body weight. Thirty minutes after injection, the intruder was placed in the home cage of his opponent, and aggression was recorded as absent or present. When aggression was present, the intruder was removed immediately so that dominance was not established. Using the same procedure as employed in Examples 15 and 16, ED50 's were established for each compound.

Where [4] appears, read: ip, intraperitoneal, 30 min before reserpine 2.5 mg/kg i.p., observed 45 min, read-out: Intraperitoneal ED50 (dose effective to protect 50 percent of the mice).
Setting [5] is: oral, before reserpine 2.5 mg/kg i.p., read-out: Oral ED50.
Setting [6] is: acute, Table II, route not given, read-out: Acute Toxicity LD50.

Like-named read-outs stand apart in the source and are kept apart here.

The term ED50 denotes the midpoint of the dose-response relation. As a reminder, the LD50 is the dose at which mortality reaches 50%. For `Clc1ccccc1N=Nc1ncc[nH]1` [Example 1, 2-((2-chlorophenyl)azo)-1H-imidazole], the ED50 in data set [1] (setting [4]) was determined as 20 mg/kg; in data set [1] (setting [5]) it was 23 mg/kg. The LD50 in data set [2] (setting [6]) is above 562 mg/kg.

As for `Cl.Clc1ccccc1N=Nc1ncc[nH]1` [Example 2, 2-((2-chlorophenyl)azo)-1H-imidazole hydrochloride], the results for the ED50 in data set [1] (setting [4]), in data set [1] (setting [5]) and in data set [3] were 17 mg/kg, 32 mg/kg and 13.3 mg/kg, respectively. The LD50 in data set [2] (setting [6]) was determined as 316 mg/kg.

For the compound `Fc1ccccc1N=Nc1ncc[nH]1` [Example 3, 2-((2-fluorophenyl)azo)-1H-imidazole], the ED50 in data set [1] (ip, read-out: Intraperitoneal ED50 (dose effective to protect 50 percent of the mice)) came out at 11 mg/kg; in data set [1] (po, read-out: Oral ED50) it was 11 mg/kg; in data set [3], 23.7 mg/kg. Besides, the selectivity ratio in data set [2] (ip, intraperitoneal LD50 / intraperitoneal ED50 (reserpine test), read-out: therapeutic index LD50/ED50) was 13.4. The median lethal dose (LD50) in data set [2] (ip, intraperitoneal, acute, read-out: intraperitoneal acute 50 percent lethal dose (LD50)) was determined as 147 mg/kg.

For `c1ccc(N=Nc2ncc[nH]2)cc1` [Example 4], the ED50 in data set [1] (setting [4]) was determined as 20 mg/kg; in data set [1] (setting [5]), 24 mg/kg; in data set [3], 27.1 mg/kg. Moreover, in data set [2] (read-out: Acute Toxicity LD50), the LD50 was 316 mg/kg.

On to `Cc1ccccc1N=Nc1ncc[nH]1` [Example 5], for which the ED50 in data set [1] (setting [4]) was found to be 42 mg/kg; in data set [1] (setting [5]), 43 mg/kg. The “antianxiety activity (in words)” value in data set [3] (isolation-induced aggression in mice) is “very weak activity”.

As to `Brc1ccccc1N=Nc1ncc[nH]1` [Example 6], the ED50 stood at 23 mg/kg in data set [1] (setting [4]), 79 mg/kg in data set [1] (setting [5]) and 28.7 mg/kg in data set [3]. Also, in data set [2] (read-out: Acute Toxicity LD50), the LD50 is above 562 mg/kg.

As to `Ic1ccccc1N=Nc1ncc[nH]1` [Example 7], the figures for the ED50 in data set [1] (setting [5]) and in data set [3] were 75 mg/kg and 31.6 mg/kg, respectively. For the same compound, the LD50 in data set [2] (read-out: Acute Toxicity LD50) was above 562 mg/kg.

On to `O=[N+]([O-])c1ccccc1N=Nc1ncc[nH]1` [Example 8, 2-((2-nitrophenyl)azo)-1H-imidazole], for which the “antidepressant activity (in words)” value in data set [1] was “active as an antidepressant”. The compound also gave an ED50 in data set [3] of 27.1 mg/kg.

Take `N#Cc1ccccc1N=Nc1ncc[nH]1` [Example 9]: the ED50 was 20 mg/kg in data set [1] (setting [4]), 19 mg/kg in data set [1] (setting [5]) and 12.6 mg/kg in data set [3]. The LD50 in data set [2] (read-out: Acute Toxicity LD50) amounted to 147 mg/kg.

In the case of `Cc1cccc(N=Nc2ncc[nH]2)c1` [Example 10, 2-((3-methylphenyl)azo)-1H-imidazole], the results for the 50% effective dose (ED50) in data set [1] (setting [4]) and in data set [3] were 27 mg/kg and 5.84 mg/kg, respectively. Further, the LD50 in data set [2] (setting [6]) came out at 316 mg/kg.

Take `Clc1cccc(N=Nc2ncc[nH]2)c1` [Example 11]: the values for the ED50 in data set [1] (setting [4]), in data set [1] (setting [5]) and in data set [3] were 24 mg/kg, 32 mg/kg and 24.5 mg/kg, respectively. Besides, the LD50 in data set [2] (read-out: Acute Toxicity LD50) is 178 mg/kg.

As to `Cc1ccc(N=Nc2ncc[nH]2)cc1` [Example 12], the “antidepressant activity (in words)” value in data set [1] was “essentially inactive as antidepressant agents”. Besides, the ED50 in data set [3] came out at 28.7 mg/kg.

Turning to `Cc1ccc(N=Nc2ncc[nH]2)c(Cl)c1` [Example 13], the “antidepressant activity (in words)” value in data set [1] is “essentially inactive as antidepressant agents”. In data set [3], this compound showed an ED50 of 25.5 mg/kg.

`Clc1ccc(N=Nc2ncc[nH]2)cc1` [Example 14, 2-((4-chlorophenyl)azo)-1H-imidazole]: the “antidepressant activity (in words)” value in data set [1] is “essentially inactive as antidepressant agents”. In data set [3], this compound gave an ED50 of 4.3 mg/kg.
